From US7371766B2, “Curcumin analogs with anti-tumor and anti-angiogenic properties” (Emory University, priority 1999, dated 2008)

Tests used:
[1] = test system: RPMI-7951 human melanoma; test: Neutral Red Assay, cell viability, RPMI-7951; settings: RPMI-7951; for Neutral Red Uptake, %: 72 hours; for Cell Viability: DMSO = 100
[2] = test system: MOLT-4; test: cells; settings: Homo sapiens, MOLT-4, 48 h; for GI50: read-out: Median Growth Inhibitory Concentration (GI50); for CC50: read-out: Median Lethal Concentration (LC50)
[3] = test system: SR; test: cells; settings: Homo sapiens, 48 h; for GI50: read-out: Median Growth Inhibitory Concentration (GI50); for CC50: read-out: Median Lethal Concentration (LC50)
[4] = test system: A549; test: cells; settings: Homo sapiens, A549, 48 h; for GI50: read-out: Median Growth Inhibitory Concentration (GI50); for CC50: read-out: Median Lethal Concentration (LC50)
[5] = test system: EKVX; test: cells; settings: Homo sapiens, 48 h; for GI50: read-out: Median Growth Inhibitory Concentration (GI50); for CC50: read-out: Median Lethal Concentration (LC50)
[6] = test system: NCI-H522; test: cells; settings: Homo sapiens, NCI-H522, 48 h; for GI50: read-out: Median Growth Inhibitory Concentration (GI50); for CC50: read-out: Median Lethal Concentration (LC50)
[7] = test system: COLO 205; test: cells; settings: Homo sapiens, COLO 205, 48 h; for GI50: read-out: Median Growth Inhibitory Concentration (GI50); for CC50: read-out: Median Lethal Concentration (LC50)
[8] = test system: HCT-15; test: cells; settings: Homo sapiens, HCT-15, 48 h; for GI50: read-out: Median Growth Inhibitory Concentration (GI50); for CC50: read-out: Median Lethal Concentration (LC50)
[9] = test system: SF-268; test: cells; settings: Homo sapiens, SF-268, 48 h; for GI50: read-out: Median Growth Inhibitory Concentration (GI50); for CC50: read-out: Median Lethal Concentration (LC50)
[10] = test system: SNB-19; test: cells; settings: Homo sapiens, SNB-19, 48 h; for GI50: read-out: Median Growth Inhibitory Concentration (GI50); for CC50: read-out: Median Lethal Concentration (LC50)
[11] = test system: SNB-75; test: cells; settings: Homo sapiens, SNB-75, 48 h; for GI50: read-out: Median Growth Inhibitory Concentration (GI50); for CC50: read-out: Median Lethal Concentration (LC50)
[12] = test system: M14; test: cells; settings: Homo sapiens, M14, 48 h; for GI50: read-out: Median Growth Inhibitory Concentration (GI50); for CC50: read-out: Median Lethal Concentration (LC50)
[13] = test system: SK-MEL-2; test: cells; settings: Homo sapiens, SK-MEL-2, 48 h; for GI50: read-out: Median Growth Inhibitory Concentration (GI50); for CC50: read-out: Median Lethal Concentration (LC50)
[14] = test system: SK-MEL-28; test: cells; settings: Homo sapiens, SK-MEL-28, 48 h; for GI50: read-out: Median Growth Inhibitory Concentration (GI50); for CC50: read-out: Median Lethal Concentration (LC50)
[15] = test system: SK-MEL-5; test: cells; settings: Homo sapiens, SK-MEL-5, 48 h; for GI50: read-out: Median Growth Inhibitory Concentration (GI50)
[16] = test system: UACC-257; test: cells; settings: Homo sapiens, UACC-257, 48 h; for GI50: read-out: Median Growth Inhibitory Concentration (GI50); for CC50: read-out: Median Lethal Concentration (LC50)
[17] = test system: IGROV1; test: cells; settings: Homo sapiens, IGROV-1, 48 h; for GI50: read-out: Median Growth Inhibitory Concentration (GI50); for CC50: read-out: Median Lethal Concentration (LC50)
[18] = test system: OVCAR-5; test: cells; settings: Homo sapiens, OVCAR-5, 48 h; for GI50: read-out: Median Growth Inhibitory Concentration (GI50); for CC50: read-out: Median Lethal Concentration (LC50)
[19] = test system: OVCAR-8; test: cells; settings: Homo sapiens, OVCAR-8, 48 h; for GI50: read-out: Median Growth Inhibitory Concentration (GI50); for CC50: read-out: Median Lethal Concentration (LC50)
[20] = test system: SK-OV-3; test: cells; settings: Homo sapiens, SK-OV-3, 48 h; for GI50: read-out: Median Growth Inhibitory Concentration (GI50); for CC50: read-out: Median Lethal Concentration (LC50)
[21] = test system: ACHN; test: cells; settings: Homo sapiens, 48 h; for GI50: read-out: Median Growth Inhibitory Concentration (GI50); for CC50: read-out: Median Lethal Concentration (LC50)
[22] = test system: RXF 393; test: cells; settings: Homo sapiens, RXF 393, 48 h; for GI50: read-out: Median Growth Inhibitory Concentration (GI50); for CC50: read-out: Median Lethal Concentration (LC50)
[23] = test system: SN12C; test: cells; settings: Homo sapiens, 48 h; for GI50: read-out: Median Growth Inhibitory Concentration (GI50); for CC50: read-out: Median Lethal Concentration (LC50)
[24] = test system: TK-10; test: cells; settings: Homo sapiens, TK-10, 48 h; for GI50: read-out: Median Growth Inhibitory Concentration (GI50); for CC50: read-out: Median Lethal Concentration (LC50)
[25] = test system: UO-31; test: cells; settings: Homo sapiens, UO-31, 48 h; for GI50: read-out: Median Growth Inhibitory Concentration (GI50); for CC50: read-out: Median Lethal Concentration (LC50)
[26] = test system: MCF-7; test: cells; settings: Homo sapiens, MCF7, 48 h; for GI50: read-out: Median Growth Inhibitory Concentration (GI50); for CC50: read-out: Median Lethal Concentration (LC50)
[27] = test system: HS 578T; test: cells; settings: Homo sapiens, 48 h; for GI50: read-out: Median Growth Inhibitory Concentration (GI50); for CC50: read-out: Median Lethal Concentration (LC50)
[28] = test system: T-47D; test: cells; settings: Homo sapiens, T47D, 48 h; for GI50: read-out: Median Growth Inhibitory Concentration (GI50); for CC50: read-out: Median Lethal Concentration (LC50)
[29] = test system: Sixty human tumor cell lines; test: cells; settings: 48 h; for GI50: read-out: Median Growth Inhibitory Concentration (GI50), Mean; for CC50: read-out: Median Lethal Concentration (LC50), Mean

C(=C\c1ccccc1)/S/C=C/c1ccccc1 [EF15]
Neutral Red Uptake, % ([1]; 5 μM): 100 % of control | Cell Viability ([1]; 5 μM): 112% | Neutral Red Uptake, % ([1]; 20 μM): 100 % of control | Cell Viability ([1]; 20 μM): 111%

OC(CCc1ccc(F)cc1F)CCc1ccc(F)cc1F [EF19, 1,5-Bis(2,4-difluorophenyl)-pentan-3-ol]
GI50 [2]: 2.6 µM | CC50 [2]: 75.6 µM | GI50 [3]: 22.7 µM | CC50 [3]: 82.6 µM | GI50 [4]: 18 µM | CC50 [4]: 65.8 µM | GI50 [5]: 17.5 µM | CC50 [5]: 57.7 µM | GI50 [6]: 18.2 µM | CC50 [6]: 75.4 µM | GI50 [7]: 17.5 µM | CC50 [7]: 55.9 µM | GI50 [8]: 24.8 µM | CC50 [8]: > 100 µM | GI50 [9]: 21.5 µM | CC50 [9]: 85.3 µM | GI50 [10]: 16.1 µM | CC50 [10]: 57.3 µM | GI50 [11]: 19 µM | CC50 [11]: 57.5 µM | GI50 [12]: 18.3 µM | CC50 [12]: 68.7 µM | GI50 [13]: 18.4 µM | CC50 [13]: 57 µM | GI50 [14]: 17.1 µM | CC50 [14]: 55.6 µM | GI50 [15]: 17.1 µM | CC50 ([15]; read-out: Median Lethal Concentration (LC50)): 55.5 µM | GI50 [16]: 17.9 µM | CC50 [16]: 56.3 µM | GI50 [17]: 17.2 µM | CC50 [17]: 55.6 µM | GI50 [18]: 18.5 µM | CC50 [18]: 61.1 µM | GI50 [19]: 18 µM | CC50 [19]: 67.3 µM | GI50 [20]: 18.5 µM | CC50 [20]: 65.9 µM | GI50 [21]: 17.8 µM | CC50 [21]: 56.3 µM | GI50 [22]: 18.8 µM | CC50 [22]: 58.4 µM | GI50 [23]: 17.4 µM | CC50 [23]: 55.9 µM | GI50 [24]: 17.4 µM | CC50 [24]: 56.3 µM | GI50 [25]: 18.2 µM | CC50 [25]: 56.6 µM | GI50 [26]: 17.7 µM | CC50 [26]: 57.1 µM | GI50 [27]: 21.9 µM | CC50 [27]: > 100 µM | GI50 [28]: 15.5 µM | CC50 [28]: 68.9 µM | GI50 [29]: 17.8 µM | CC50 [29]: 64.6 µM

CC(=O)O.O=C1C(=Cc2ccccc2F)CNCC1=Cc1ccccc1F [EF24, 3,5-Bis-(2-fluorobenzylidene)-piperidin-4-one-acetate]
GI50 [2]: 0.5 µM | CC50 [2]: 66.2 µM | GI50 [3]: 0.1 µM | CC50 [3]: 68.2 µM | GI50 [4]: 1.9 µM | CC50 [4]: 89.4 µM | GI50 [5]: 0.9 µM | CC50 [5]: 9.4 µM | GI50 [6]: 0.9 µM | CC50 [6]: 22.9 µM | GI50 [7]: 0.8 µM | CC50 [7]: 8 µM | GI50 [8]: 0.2 µM | CC50 [8]: 13.6 µM | GI50 [9]: 0.6 µM | CC50 [9]: 55.6 µM | GI50 [10]: 0.7 µM | CC50 [10]: 19.3 µM | GI50 [11]: 2 µM | CC50 [11]: 8.8 µM | GI50 [12]: 1.2 µM | CC50 [12]: 27.7 µM | GI50 [13]: 2.6 µM | CC50 [13]: 19.5 µM | GI50 [14]: 2.1 µM | CC50 [14]: 33.1 µM | GI50 [15]: 1.3 µM | GI50 [16]: 1.8 µM | CC50 [16]: 13.5 µM | GI50 [17]: 0.8 µM | CC50 [17]: 7.1 µM | GI50 [18]: 1.3 µM | CC50 [18]: 9.2 µM | GI50 [19]: 0.4 µM | CC50 [19]: 31.3 µM | GI50 [20]: 1.7 µM | CC50 [20]: 12.8 µM | GI50 [21]: 1.1 µM | CC50 [21]: 5.6 µM | GI50 [22]: 0.6 µM | CC50 [22]: 3.6 µM | GI50 [23]: 1 µM | CC50 [23]: 5.4 µM | GI50 [24]: 3.1 µM | CC50 [24]: 27.8 µM | GI50 [25]: 0.6 µM | CC50 [25]: 4.5 µM | GI50 [26]: 0.2 µM | CC50 [26]: 5 µM | GI50 [27]: 1 µM | CC50 [27]: 81.4 µM | GI50 [28]: 1.3 µM | CC50 [28]: 51.9 µM | GI50 [29]: 0.7 µM | CC50 [29]: 13.2 µM

O=C1C(=Cc2ccccc2O)COCC1=Cc1ccccc1O [EF25, 3,5-Bis(2-hyrdoxybenzylidene)tetrahydro4-H-pyran4-one]
Cell Viability ([1]; 5 μM): 12%
